Measurements reported in patent publication US20090156609A1, “TREATMENT OF POST-TRAUMATIC STRESS DISORDER WITH TETRAHYDROINDOLONE ARYLPIPERZAINE COMPOUNDS” (priority 2007, published 2009).
Where two headings read alike, the source gives them in different places.

How the values were obtained:
Male C57 mice = test: PCP-induced disruption of prepulse inhibition (PPI) of the startle response; assay type: in vivo; conditions: for minimal effective dose: Mus musculus, 20 minutes prior to PCP 5 mg/kg IP, read-out: Effective Dose, Prepulse Inhibition Testing
Description: The phencyclidine (PCP)-induced disruption of pre-pulse inhibition (PPI) has been used to predict efficacy in cognitive impairment and other disorders. In this test, a weaker auditory prestimulus (prepulse) inhibits the reaction of an test organism to a subsequent strong startle stimulus (pulse). Normal PPI functioning in mammals is critical in filtering out irrelevant sensory information, an inhibitory process that is affected in patients with PTSD. A reduction of the cognitive/attention impairment produced in the PPI model can be used as an efficacy measure for compound candidate selection.
For testing of PPI, male C57 mice can be assigned to five dose groups of eight animals per group, and vehicle or test compound can then be administered orally (PO) or subcutaneously (SC) 20 minutes prior to intraperitoneal (IP) administration of vehicle or PCP (5 mg/kg). Ten minutes following PCP administration, the mice are placed into Hamilton-Kinder startle chambers and evaluation of pre-pulse inhibition procedure is performed. Following a five-minute acclimatization period with background white noise (65 decibels), mice were exposed to five different trial types. Trials were presented […] in a quasi-random order, with randomized 5 to 25 second inter-trial intervals. Trials were: stimulus only trial (120 decibel white noise, 50 ms stimulus); two different prepulse+pulse trials in which a 20 ms 5 decibel, or 10 decibel stimuli above a 65 decibel background preceded the 120 decibel pulse by 120 ms; a 10 decibel prepulse without a 120 decibel pulse; and a no stimulus trial, in which only the background noise was presented.
Compounds which are observed to reduce and/or reverse PCP-induced impairment can be selected as candidates for further evaluation. Such reduction is also indicative of memory enhancement, which is also a positive indicator for further development.
Male C57 mice were assigned to five dose groups of eight animals per group, and vehicle or a test compound was administered orally or subcutaneously 20 minutes prior to intraperitoneal administration of vehicle or PCP (5 mg/kg). Ten minutes following PCP administration, the mice were placed into Kinder Scientific startle chambers (Kinder Scientific, Poway, Calif.) and pre-pulse inhibition was evaluated. Following a five-minute acclimatization period with background white noise (65 dB), mice were exposed to five different trial types. Trials were presented in a quasi-random order, with randomized 5 to 25 second inter-trial intervals. The five different trials (presented 10 times each were): stimulus only trial (120 dB white noise, 50 ms stimulus); two different prepulse+pulse trials in which a 20 ms 5 dB or 10 dB stimulus above a 65 dB background preceded the 120 dB pulse by 120 ms; a 10 dB prepulse without a 120 dB pulse; and a no stimulus trial, in which only the background noise was presented.

C57/BL6 male mice = test: Contextual fear conditioning in an open field model; assay type: in vivo; conditions: 3.0 mg/kg subcutaneously for 10 consecutive days, tested day 16 after 5 day wash out
Method: Response to the development of contextual fear conditioning in an open field model, a model for PTSD, was evaluated in C57/BL6 male mice using the Kinder Scientific MotorMonitor System (Version 3.11, Kinder Scientific, Poway, Calif.). On Day 1 (Trauma Induction Day), animals were pretreated with compound 30 minutes prior to trauma induction and placed in a cage with a shock-grid floor. Locomotor activity was evaluated by an automated open field system with infrared photo-beams. The mice were placed in the center of the cage and the following variables of motor activity were recorded: locomotor activity, fine movement, and rearing. Animals were placed in the chamber for a total of 300 seconds. After 230 seconds, a 10 second, 2.0 mA electric footshock was administered. Mice remained in the chamber for an additional minute. Mice were then injected subcutaneously for 10 consecutive days (starting 24 hours post trauma induction) with either Compound A (3.0 mg/kg) or vehicle. On day 16, following a 5 day wash out period, mice were exposed to the traumatic environment without shock for 5 minutes. Total ambulatory activity was compared between Day 1 and Day 16.

O=C1CCCc2c1ccn2CCN1CCN(c2cccc(Cl)c2)CC1 [Compound A, 1-{2-[4-(3-Chlorophenyl)piperazin-1-yl]ethyl}-1,5,6,7-tetrahydroindol-4-one]
minimal effective dose (Male C57 mice; sc, subcutaneous): 3 mg/kg
minimal effective dose (Male C57 mice; oral): 1 mg/kg
prepulse inhibition versus control levels (FIG. 1) (Male C57 mice; doses of 10 mg/kg, PCP-induced disruption): inhibition was returned to control levels
minimum effective dose, Prepulse Inhibition (PPI) (Male C57 mice; reversal of PCP-induced disruption, route not given): 3 mg/kg
suppressed basic movements compared to vehicle treated animals (FIG. 2) (C57/BL6 male mice): displayed a reduction in suppressed basic movements
